Reference: patent US6730679B1, “Pharmaceutical formulations” (SmithKline Beecham Corporation, priority 1996, dated 2004)

Assay: Aqueous solubility of the compound of formula (I)
Format: physicochemical
Text: Current formulations of HIV protease inhibitors for oral administration are in powder or tablet form. However, HIV protease inhibitors in these oral formulations are generally poorly soluble and, therefore, poorly bioavailable for the above reasons. […] In addition, the compound of formula (I) is poorly wetted. Therefore, formulating the compound using standard formulary techniques is difficult and leads in any event to a formulation with low bioavailability.

CC(C)CN(C[C@@H](O)[C@H](Cc1ccccc1)NC(=O)O[C@H]1CCOC1)S(=O)(=O)c1ccc(N)cc1 (relative stereo) [compound of formula (I), 3S-[3R*(1R*, 2S*)]-[3-[[(4-aminophenyl)sulphonyl](2-methylpropyl)-amino]-2-hydroxy-1-phenylmethyl)propyl]carbamic acid, tetrahydro-3-furanyl ester]
variation of aqueous solubility with pH (FIG. 1): does not significantly vary with pH | solubility (water (aqueous), room temperature): 95 µg/mL
